Holding throughout (assay): acetophenone formation at […] nm, Michaelis-Menten fit
Holding throughout (type): biochemical
Details in all cases: 0.1 mM PLP, 0.25% DMSO, 50 mM sodium phosphate pH 8.0, 25°C

For experiment [1], the target named is T1, At-ATA (Aspergillus terreus, UniProt Q0C8G1, D224K).
T1 construct: gene ATEG_10023

The target of experiment [2] is T2, At-ATA (Aspergillus terreus, UniProt Q0C8G1, E253A).
T2 construct: gene ATEG_10023

Experiment [3] has as its target T3, At-ATA (Aspergillus terreus, UniProt Q0C8G1, E133Q).
T3 construct: gene ATEG_10023

Where [4] appears, read: read-out: Km1-(R)-PEA /, 2.5 mM pyruvate.
Where [5] appears, read: read-out: Kmpyruvate /, 2.5 mM 1-(R)-PEA.

Here are results for two compounds from PMC8081293 (Frontiers in Chemistry, 2021).

Where two headings read alike, the source gives them in different places.

As for `C[C@@H](N)c1ccccc1` [1-(R)-PEA], the Km at At-ATA [1] (setting [4]) is 140 ± 10 µM; on At-ATA [2] (setting [4]), 170 ± 20 µM; at At-ATA [3] (setting [4]), 160 ± 10 µM.
On to `CC(=O)C(=O)O` [pyruvate], for which the Km at At-ATA [1] (setting [5]) was 350 ± 20 µM; at At-ATA [2] (setting [5]) it was 690 ± 10 µM; at At-ATA [3] (setting [5]), 500 ± 10 µM.
